We go through 103 compounds from PubChem BioAssay AID1996.

SMILES strings stand for the structures. ≈ marks a conversion by molar mass, not a printed value.

For this data set the following is noted: buffer; pH 7.4; 200.0 µM.
On to `CC(C)(C)c1ccc(C(=O)NC2CCS(=O)(=O)C2)cc1` (stereo not drawn), for which the solubility (kinetic) (in general, the concentration staying in solution when a stock, usually in DMSO, is diluted into the medium) is over 44.3 µg/mL.
The result for `O=[N+]([O-])c1ccccc1S(=O)(=O)N1CCSCC1` reads 34.2 µg/mL (≈ 119 µM); that for `O=C1CC(N2CCc3ccccc32)C(=O)N1c1ccc(F)cc1` (stereo not drawn), over 46.5 µg/mL; that for `CC(C)NC(=O)Cn1cc(C(=O)c2ccccc2)c2ccccc21`, 1.7 µg/mL (≈ 5.31 µM).
The result for `Cc1ccc(CNC(=O)CCc2cn(C)c3ccccc23)cc1` reads 5.1 µg/mL (≈ 16.6 µM); that for `Cc1ccc(NC(=O)Nc2cccc(C)n2)cc1`, 0.8 µg/mL (≈ 3.32 µM).
The value for `CN(C)/C=N/S(=O)(=O)c1ccc(Cl)c(Cl)c1` was over 42.2 µg/mL; that for `COC(=O)c1ccc(NC(=S)N2CCN(CCO)CC2)cc1` was over 48.5 µg/mL; that for `Cc1ccc(-c2cn3cc(C)ccc3n2)cc1` was 1.6 µg/mL (≈ 7.2 µM).
Regarding `O=[N+]([O-])c1ccc(O)c(Nc2ncnc3ccccc23)c1`, the kinetic solubility came out at 1.4 µg/mL (≈ 4.96 µM).
`COC(=O)c1cc(Nc2cc(C)c3c(O)cccc3n2)cc(C(=O)OC)c1`: the kinetic solubility is under 0.4 µg/mL.
The result for `CCOC(=O)c1ccc(CN2C(=O)c3ccccc3S2(=O)=O)cc1` reads 0.9 µg/mL (≈ 2.61 µM).
The value for `O=c1[nH]cnc2cc(-c3ccc(Br)cc3)sc12` was 0.6 µg/mL (≈ 1.95 µM); that for `CCOc1ccc(CCNC(=O)/C=C/c2ccco2)cc1OCC` was over 49.4 µg/mL.
The result for `CCCN(Cc1ccccc1)C(=S)Nc1cccc(C)c1C` reads under 0.3 µg/mL.
In turn, `O=C(COC(=O)c1ccccc1)Nc1ccc2[nH]c(=O)[nH]c2c1` registered a solubility (kinetic) of 7.2 µg/mL (≈ 23.1 µM).
The result for `O=C(O)c1ccc(NC(=O)C2C3CCC(O3)C2C(=O)O)cc1` (stereo not drawn) reads over 45.8 µg/mL; that for `O=C(O)C1CCC(N2C(=O)c3cccc([N+](=O)[O-])c3C2=O)CC1` (stereo not drawn), over 47.7 µg/mL; that for `O=C(O)CCCNC(=O)/C=C/c1ccco1`, 26.5 µg/mL (≈ 119 µM).
`Cc1ccc(C(=O)Nc2ccc(Nc3ccccc3)cc2)c(Cl)c1` showed a kinetic solubility of under 0.4 µg/mL.
The result for `Cc1ccc2c(c1)c1c3n2CCN(CCC(=O)O)C3CCC1` (stereo not drawn) reads over 44.8 µg/mL; that for `c1ccc(CN2CCN(c3cnc4ccccc4n3)CC2)cc1`, 37.7 µg/mL (≈ 124 µM); that for `O=C(COC(=O)C1CCC(=O)N1)Nc1cccc([N+](=O)[O-])c1` (stereo not drawn), over 46.1 µg/mL.
The value for `O=C(NCc1cccs1)C1CC1` was 26.5 µg/mL (≈ 146 µM); that for `CCOC(=O)c1ccoc1CN1CCN(S(=O)(=O)c2ccc(C)c(C)c2)CC1` was 32.8 µg/mL (≈ 80.7 µM); that for `CC12CN3CC(C)(CN(C1)C3c1ccc3c(c1)OCO3)C2O` (stereo not drawn) was over 45.4 µg/mL.
`O=C(Nc1ccc(Br)cc1)c1cnc[nH]1`: the kinetic solubility is over 39.9 µg/mL.
As to `COc1ccc(NC2CC(=O)N(c3cc([N+](=O)[O-])ccc3C)C2=O)cc1` (stereo not drawn), the solubility (kinetic) is over 53.3 µg/mL.
The value for `O=C(NC(=S)Nc1ccccc1O)c1cncc(Br)c1` was 9.4 µg/mL (≈ 26.7 µM); that for `CC(C)NCC(O)COc1cccc2ccccc12.Cl` (stereo not drawn) was over 44.4 µg/mL; that for `COc1ccc(CCNC(=O)c2ccccc2SC)cc1` was 27.4 µg/mL (≈ 90.9 µM).
The value for `Cc1ccc2cc(COC(=O)c3cccc([N+](=O)[O-])c3)c(=O)[nH]c2c1` was 2.7 µg/mL (≈ 7.98 µM); that for `FC(F)(F)c1ccc(NC2=NCCC2)cc1` was over 34.2 µg/mL.
The result for `CCc1noc(C)c1C(=O)OCC(=O)Nc1ccc2c(c1)OCO2` reads 9.5 µg/mL (≈ 28.6 µM).
Take `CCOc1ccc(S(=O)(=O)NC(=O)c2ccccc2)cc1`: the solubility (kinetic) is over 45.8 µg/mL.
The value for `CC(C)c1ccccc1NC(=S)NC1CCCCC1` was over 41.5 µg/mL; that for `CC1(C)C(=O)Nc2ccccc2N1C(=O)COC(=O)c1cc(Cl)cc(Cl)c1` was 2.8 µg/mL (≈ 6.88 µM); that for `Cc1ccc(OC(C)C(=O)Nc2ccncc2)cc1C` (stereo not drawn) was 34 µg/mL (≈ 126 µM).
The result for `O=C(Nc1ccc2c(c1)CCC2)Nc1ccc(F)cc1F` reads under 0.3 µg/mL; that for `O=C(NCCC1=CCCCC1)C(=O)NCCc1ccc(Cl)cc1`, under 0.4 µg/mL.
As for `O=C(OCCN1C(=O)c2ccccc2C1=O)[C@@H]1CC(O)CN1S(=O)(=O)c1ccccc1[N+](=O)[O-]` (stereo partly drawn), the kinetic solubility is over 73.4 µg/mL.
The value for `OC(CCNCCc1c[nH]c2ccccc12)C(F)(F)Cl` (stereo not drawn) was over 45.4 µg/mL; that for `O=C(Nc1cccc2ccccc12)N1CCN(c2ncccn2)CC1` was over 50 µg/mL; that for `CC1CCN(C(=O)CSc2nc3ncccc3[nH]2)CC1` was over 43.6 µg/mL.
`Cc1ccc(C)c(S(=O)(=O)NC2CCSC2=O)c1` (stereo not drawn): the solubility (kinetic) is over 42.8 µg/mL.
The value for `FC(F)(F)c1ccc(NC(=S)NC2CCCCC2)cc1` was 2.5 µg/mL (≈ 8.27 µM).
The value for `COc1cc2c(cc1OC)C(C)N(C(=O)Nc1cc(C)cc(C)c1)CC2` (stereo not drawn) was 2.7 µg/mL (≈ 7.62 µM).
The compound `O=C(NCc1ccc(F)cc1)c1ccc(Br)o1` gave a kinetic solubility of 37.9 µg/mL (≈ 127 µM).
The value for `O=C(Nc1cccc(O)c1)c1cc(-c2cccs2)on1` was 1.3 µg/mL (≈ 4.54 µM); that for `NC(=O)NC(=O)COC(=O)c1ccc2noc(-c3ccccc3)c2c1` was 5.2 µg/mL (≈ 15.3 µM); that for `O=C(O)C1CCCCC1C(=O)Nc1ccc2c(c1)OCO2` (stereo not drawn) was over 43.7 µg/mL.
The value for `O=C(COC(=O)c1ccc2ccccc2n1)c1ccc(F)cc1` was 16.8 µg/mL (≈ 54.3 µM); that for `COCCn1cc(C(=S)N2CCCCC2)c2ccccc21` was over 45.4 µg/mL.
The result for `COCCCN(CC(=O)O)S(=O)(=O)c1cccc(Cl)c1` reads over 48.3 µg/mL; that for `COc1ccc(C(=O)C2CCCN(Cc3cccc(C)n3)C2)c(OC)c1` (stereo not drawn), over 53.2 µg/mL.
In the case of `Nc1cc(OCC(F)(F)F)cc(OCC(F)(F)F)c1`, the kinetic solubility was over 43.4 µg/mL.
Compound `CC(C)N1CCC(=NNC(=O)c2cccs2)CC1` had a kinetic solubility of over 39.8 µg/mL.
The compound `O=C(COc1ccc2cc(Br)ccc2c1)N1CCOCC1` displayed a solubility (kinetic) of over 52.5 µg/mL.
The value for `S=C(NCCc1ccc(Cl)cc1)NC1CCCCC1` was 4 µg/mL (≈ 13.5 µM); that for `CCn1c(=O)c([N+](=O)[O-])c(NCC2CCCO2)c2ccccc21` (stereo not drawn) was 47.5 µg/mL (≈ 150 µM).
The value for `O=C(CN1C(=O)COc2ccccc21)NCCN1CCCC1` was over 45.5 µg/mL; that for `CC(C)Oc1ccc(C(=O)Nc2nc3ccccc3[nH]2)cc1` was 1.3 µg/mL (≈ 4.4 µM); that for `CCSC1=C(C#N)C(c2ccc(C)o2)CC(=O)N1` (stereo not drawn) was over 39.3 µg/mL.
The compound `Cc1nc(SCC(=O)NCc2ccc3c(c2)OCO3)nc(C)c1C` gave a kinetic solubility of over 51.8 µg/mL.
On to `CN(C)CC/C=C1/c2ccc(F)cc2Sc2ccc(Cl)cc21.Cl`, for which the solubility (kinetic) is 26.1 µg/mL.
`O=C(O)/C=C/C(=O)Nc1ccc(C(=O)c2ccccc2)cc1`: the kinetic solubility was over 44.3 µg/mL.
The value for `Cc1nc(Nc2ccc(Cl)cc2)c(C#N)c(=O)[nH]1` was 9.6 µg/mL (≈ 36.8 µM).
Regarding `Cc1cc(NC(=O)Cc2ccsc2)ccc1Br`, the solubility (kinetic) is 4.5 µg/mL (≈ 14.5 µM).
`O=C(Nc1nccs1)C(Cl)(Cl)Cl`: the solubility (kinetic) is over 36.8 µg/mL.
As for `CCCCn1nc(C(=O)N(C)CC(=O)Nc2ccc(F)c(F)c2F)ccc1=O`, the kinetic solubility was over 59.5 µg/mL.
`COc1ccc(CNc2nc(Cl)c(C#N)s2)cc1` registered a solubility (kinetic) of 1.1 µg/mL (≈ 3.93 µM).
The value for `CN(C)/C=C1\C(=O)Oc2ccccc2C1=O` was 32.4 µg/mL (≈ 149 µM); that for `CC(C(=O)N1CCN=C1c1ccccc1)N1C(=O)c2ccccc2C1=O` (stereo not drawn) was over 52.1 µg/mL.
As for `CC(C)(C)NC(=O)C1CCC(CNc2c(N3CCCCC3)c(=O)c2=O)CC1` (stereo not drawn), the kinetic solubility is over 56.3 µg/mL.
The value for `O=C(NC(=S)Nc1ccccc1Br)C1CC1` was 41.7 µg/mL (≈ 139 µM).
The result for `CCC(=O)c1c[nH]c(C(=O)NCc2cccc(C(F)(F)F)c2)c1` reads under 0.4 µg/mL.
Take `COC(=O)c1ccc(CSCC(=O)Nc2ccccc2)cc1`: the kinetic solubility was over 47.3 µg/mL.
The result for `Cc1cc(C)c(NC(=O)Nc2ccccc2C)c(Cl)c1` reads 0.8 µg/mL (≈ 2.77 µM); that for `COc1c(C)cc(C(=O)C2CCCN(C3CCOCC3)C2)cc1C` (stereo not drawn), over 49.7 µg/mL.
Compound `COc1ccc(CN=C(C#N)C2=C(O)c3ccccc3C2=O)cc1` came in with a solubility (kinetic) of 0.8 µg/mL (≈ 2.51 µM).
For the compound `O=C(c1ccco1)N1CCN(C2c3ccccc3-c3ccccc32)CC1`, the solubility (kinetic) came to 1 µg/mL (≈ 2.9 µM).
The result for `S=c1sc2c(Cl)ncnc2n1-c1ccccc1` reads 8.3 µg/mL (≈ 29.7 µM); that for `CS(=O)(=O)c1ccccc1C(=O)NC1CCCc2ccccc21` (stereo not drawn), over 49.4 µg/mL; that for `c1ccc(CN2CCC(Nc3ncnc4sccc34)CC2)cc1`, 46.2 µg/mL (≈ 142 µM).
The value for `O=C(Nc1ccc(S(=O)(=O)Nc2nccs2)cc1)C(F)(F)F` was over 52.7 µg/mL; that for `CC(=O)OCCNc1cc(SC(C)C)c2nonc2c1[N+](=O)[O-]` was 4.1 µg/mL (≈ 12 µM); that for `N#C/C(=C/c1cccc(O)c1)C(=O)NCc1ccc(Cl)cc1` was 1.3 µg/mL (≈ 4.16 µM).
The result for `O=C1CN(C(=S)Nc2ccc(OC(F)F)cc2)CCN1` reads over 45.2 µg/mL; that for `CCCNc1nc(Cl)nc(Nc2ccc(Cl)cc2)n1`, 1.1 µg/mL (≈ 3.69 µM).
Turning to `Cl.O=C(CCN1CCOCC1)NC12CC3CC(CC(C3)C1)C2`, the solubility (kinetic) was found to be 48.9 µg/mL.
`Cc1oc(C(N)=O)cc1COc1ccc(C(N)=O)cc1` returned a kinetic solubility of 32.9 µg/mL (≈ 120 µM).
Take `O=C(CCNS(=O)(=O)c1ccc(F)c(F)c1)NCCN1CCOCC1`: the kinetic solubility is over 56.6 µg/mL.
`Cc1nc(-c2ccc(NC(=O)C3CC3)cc2)cs1` showed a solubility (kinetic) of 13.3 µg/mL (≈ 51.5 µM).
With `O=C(c1ccc2[nH]c(=O)c(=O)[nH]c2c1)N1CCc2ccccc2C1`, the solubility (kinetic) was over 48.2 µg/mL.
The value for `CCOC(=O)c1ccc(NC(=O)C2C3CCCCC32)cc1` (stereo not drawn) was under 0.6 µg/mL.
The result for `Cc1cccc(C(=O)NCCNC(=O)c2ccccn2)c1` reads over 42.5 µg/mL; that for `COc1ccc(NC(=O)C(CC(=O)O)Cc2ccc(Cl)cc2)cc1` (stereo not drawn), over 52.2 µg/mL.
The compound `CS(=O)(=O)Nc1ccccc1C(=O)OCC(=O)NCc1cccs1` displayed a solubility (kinetic) of over 55.3 µg/mL.
For `COc1cc(OC)cc(C(=O)NCCSCc2ccc(Cl)cc2)c1`, the solubility (kinetic) was 5.2 µg/mL (≈ 14.2 µM).
The value for `O=C(COC(=O)c1ccc(Br)o1)NCc1ccccc1Cl` was 9 µg/mL (≈ 24.2 µM).
Compound `Cc1noc(C)c1C(=O)OCC(=O)NCCc1ccc(S(N)(=O)=O)cc1` came in with a solubility (kinetic) of over 57.2 µg/mL.
Consider `Cc1cccnc1NC1CCCCC1`, for which the kinetic solubility came to 8.1 µg/mL (≈ 42.6 µM).
In turn, `CNC(=O)/C(C#N)=C/c1cc(C)n(-c2ccc(N3CCOCC3)cc2)c1C` registered a solubility (kinetic) of 1.5 µg/mL (≈ 4.12 µM).
